This is an account of results in patent US20130005721A1, “INDOLIZINE INHIBITORS OF 5-LIPOXYGENASE” (PANMIRA PHARMACEUTICALS, LLC, priority 2009, published 2013).

The test system of one assay is human leukocytes (LTB4 production, calcium ionophore stimulated). As to the kind of experiment: Human Leukocyte LTB4 Inhibition Assay. To be noted: LTB4 by ELISA, read-out: LTB4 HLA IC50. Type of assay: cell-based. The protocol: Human Leukocyte LTB4 Inhibition Assay
A non-limiting example of a human leukocyte inhibition assay is as follows; Blood was drawn from consenting human volunteers into heparanized tubes and 3% dextran 0.9% saline ⅓ rd volume added. After sedimentation of red blood cells a hypotonic lysis of remaining red blood cells was performed and leukocytes sedimented at 1200 rpm. The pellet was resuspended at 1.25×10^5 cells/ml and aliquoted into wells containing 1 μL 100% DMSO (vehicle) or 2.5 μL drug in 100% DMSO. Samples were incubated for 5 minutes at 37° C. and 2 μL calcium ionophore […] (from a 50 mM DMSO stock diluted just prior to the assay in Hanks balanced salt solution (Invitrogen)) to 1.25 mM) was added, solutions mixed and incubated for 30 minutes at 37° C. Samples were centrifuged at 1,200 rpm (−200×g) for 10 minutes at 4° C., plasma removed and a 1:4 dilution assayed for LTB4 concentration using ELISA (Assay Designs). Drug concentrations to achieve 50% inhibition (IC50's) of vehicle LTB4 were determined by nonlinear regression (Graphpad Prism) of % inhibition versus log drug concentration.
(ELISA stands for enzyme-linked immunosorbent assay.)
In general, IC50 refers to the midpoint of a concentration-inhibition curve. As to `CCC(O)(c1cn(Cc2ccn3c(-c4ccc(F)cc4)c(C#N)cc3c2)nn1)C(F)(F)F` (centres unmarked) [Compound 1-22, 3-(4-Fluoro-phenyl)-7-[4-(1-hydroxy-1-trifluoromethyl-propyl)-[1,2,3]triazol-1-ylmethyl]-indolizine-2-carbonitrile], the IC50 was < 300 nM.

The assay is the same for the next values; noted with them: Leukocyte, LTB4 by ELISA, read-out: LTB4 HLA IC50.
On to `CCC(OC(=O)c1ccc([N+](=O)[O-])cc1)(c1cn(Cc2ccn3c(-c4ccc(C)nc4)c(C(N)=O)cc3c2)nn1)C(F)(F)F` (single isomer, unassigned) [Compound 1-75, 4-Nitro-benzoic acid 1-{1-[2-carbamoyl-3-(6-methyl-pyridin-3-yl)-indolizin-7-ylmethyl]-1H-[1,2,3]triazol-4-yl}-1-trifluoromethyl-propyl ester], for which the IC50 is > 1000 nM.
For `CCC(O)(c1cn(Cc2ccn3c(Cl)c(C(N)=O)cc3c2)nn1)C(F)(F)F` (single isomer, unassigned) [Compound 1-89, 3-Chloro-7-[4-(1-hydroxy-1-trifluoromethyl-propyl)-[1,2,3]triazol-1-ylmethyl]-indolizine-2-carboxylic acid amide], the IC50 is > 1000 nM.
The same measure, in the same setting: next, `CCC(O)(c1cn(Cc2ccn3c(-c4ccc(F)cc4)c(C(=O)O)cc3c2)nn1)C(F)(F)F` (centres unmarked) [Compound 1-5, 3-(4-Fluoro-phenyl)-7-[4-(1-hydroxy-1-trifluoromethyl-propyl)-[1,2,3]triazol-1-ylmethyl]-indolizine-2-carboxylic acid]: 300 to 1000 nM; `CCC(O)(c1cn(Cc2ccn3c(-c4ccc(F)cc4)c(C(=O)N4CCS(=O)(=O)C4)cc3c2)nn1)C(F)(F)F` (centres unmarked) [Compound 1-50, (1,1-Dioxo-1λ^6-thiazolidin-3-yl)-{3-(4-fluoro-phenyl)-7-[4-(1-hydroxy-1-trifluoromethyl-propyl)-[1,2,3]triazol-1-ylmethyl]-indolizin-2-yl}-methanone]: > 1000 nM.
In the case of `CCOC(=O)c1cc2cc(Sc3ncc(C(O)(CC)C(F)(F)F)s3)ccn2c1` (centres unmarked) [Compound 1-1, 7-[5-(1-Hydroxy-1-trifluoromethyl-propyl)-thiazol-2-ylsulfanyl]-indolizine-2-carboxylic acid ethyl ester], the IC50 was < 300 nM.
For `CCOC(=O)c1cc2cc(Cn3ncc(C(O)(CC)C(F)(F)F)n3)ccn2c1-c1ccc(F)cc1` (centres unmarked) [Compound 1-3, 3-(4-Fluoro-phenyl)-7-[4-(1-hydroxy-1-trifluoromethyl-propyl)-[1,2,3]triazol-2-ylmethyl]-indolizine-2-carboxylic acid ethyl ester], the IC50 was < 300 nM.
Consider `CCC(O)(c1cn(Cc2ccn3c(-c4ccnc(C)c4)c(C(N)=O)cc3c2)nn1)C(F)(F)F` (centres unmarked) [Compound 1-64, 7-[4-(1-Hydroxy-1-trifluoromethyl-propyl)-[1,2,3]triazol-1-ylmethyl]-3-(2-methyl-pyridin-4-yl)-indolizine-2-carboxylic acid amide], for which the IC50 is > 1000 nM.
As to `CCOC(=O)c1nc2cc(Cn3cc(C(O)(CC)C(F)(F)F)nn3)ccn2c1-c1ccc(F)cc1` (centres unmarked) [Compound 1-13, 3-(4-Fluoro-phenyl)-7-[4-(1-hydroxy-1-trifluoromethyl-propyl)-[1,2,3]triazol-1-ylmethyl]-imidazo[1,2-a]pyridine-2-carboxylic acid ethyl ester], the IC50 was < 300 nM.
On to `CCOc1ccc(-c2c(C(N)=O)cc3cc(Cn4cc(C(O)(CC)C(F)(F)F)nn4)ccn23)cn1` (centres unmarked) [Compound 1-58, 3-(6-Ethoxy-pyridin-3-yl)-7-[4-(1-hydroxy-1-trifluoromethyl-propyl)-[1,2,3]triazol-1-ylmethyl]-indolizine-2-carboxylic acid amide], for which the IC50 was > 1000 nM.
For the compound `CCC(O)(c1cn(Cc2ccn3c(-c4ccc(F)cc4)c(/C=C/C(N)=O)cc3c2)nn1)C(F)(F)F` (centres unmarked) [Compound 1-43, (E)-3-{3-(4-Fluoro-phenyl)-7-[4-(1-hydroxy-1-trifluoromethyl-propyl)-[1,2,3]triazol-1-ylmethyl]-indolizin-2-yl}-acrylamide], the IC50 was < 300 nM.
As for `CCC(O)(c1cn(Cc2ccn3c(-c4ccc(F)cc4)c(C(C)=O)cc3c2)nn1)C(F)(F)F` (centres unmarked) [Compound 1-54, 1-{3-(4-Fluoro-phenyl)-7-[4-(1-hydroxy-1-trifluoromethyl-propyl)-[1,2,3]triazol-1-ylmethyl]-indolizin-2-yl}-ethanone], the IC50 is < 300 nM.
With `CCC(O)(c1cn(Cc2ccn3c(-c4ccc(F)cc4)c(CS(C)(=O)=O)cc3c2)nn1)C(F)(F)F` (centres unmarked) [Compound 1-34, 1,1,1-Trifluoro-2-{1-[3-(4-fluoro-phenyl)-2-methanesulfonylmethyl-indolizin-7-ylmethyl]-1H-[1,2,3]triazol-4-yl}-butan-2-ol], the IC50 is < 300 nM.
Turning to `CCC(O)(c1cn(Cc2ccn3c(-c4ccc(F)cc4)c(-c4nn[nH]n4)cc3c2)nn1)C(F)(F)F` (centres unmarked) [Compound 1-23, 1,1,1-Trifluoro-2-{1-[3-(4-fluoro-phenyl)-2-(2H-tetrazol-5-yl)-indolizin-7-ylmethyl]-1H-[1,2,3]triazol-4-yl}-butan-2-ol], the IC50 was > 1000 nM.
Same read-out and setting: next, `CCC(O)(c1cn(Cc2ccn3c(-c4ccc(OC)nc4)c(C(N)=O)cc3c2)nn1)C(F)(F)F` (single isomer, unassigned) [Compound 1-78, 7-[4-(1-Hydroxy-1-trifluoromethyl-propyl)-[1,2,3]triazol-1-ylmethyl]-3-(6-methoxy-pyridin-3-yl)-indolizine-2-carboxylic acid amide]: < 300 nM; `CCOC(=O)c1cc2cc(Cn3cc(C(O)(CC)C(F)(F)F)nn3)ccn2c1-c1cnc2ccccc2c1` (centres unmarked) [Compound 1-52, 7-[4-(1-Hydroxy-1-trifluoromethyl-propyl) [1,2,3]triazol-1-ylmethyl]-3-quinolin-3-yl-indolizine-2-carboxylic acid ethyl ester]: < 300 nM; `CCC(O)(c1cn(Cc2ccn3c(-c4ccnc(C)c4)c(C#N)cc3c2)nn1)C(F)(F)F` (single isomer, unassigned) [Compound 1-80, 7-[4-(1-Hydroxy-1-trifluoromethyl-propyl)-[1,2,3]triazol-1-ylmethyl]-3-(2-methyl-pyridin-4-yl)-indolizine-2-carbonitrile]: < 300 nM.
For the compound `CCC(O)(c1cn(Cc2ccn3c(-c4ccc(OC)nc4)c(C(N)=O)c(C(=O)C(F)(F)F)c3c2)nn1)C(F)(F)F` (single isomer, unassigned) [Compound 1-82, 7-[4-(1-Hydroxy-1-trifluoromethyl-propyl)-[1,2,3]triazol-1-ylmethyl]-3-(6-methoxy-pyridin-3-yl)-1-(2,2,2-trifluoro-acetyl)-indolizine-2-carboxylic acid amide], the IC50 is > 1000 nM.
For the compound `CCC(O)(c1cn(Cc2ccn3c(-c4ccc(Cl)cc4)c(C(N)=O)cc3c2)nn1)C(F)(F)F` (centres unmarked) [Compound 1-28, 3-(4-Chloro-phenyl)-7-[4-(1-hydroxy-1-trifluoromethyl-propyl)-[1,2,3]triazol-1-ylmethyl]-indolizine-2-carboxylic acid amide], the IC50 was < 300 nM.
As to `CCOC(=O)c1cc2cc(Cn3cc(C(O)(CC)C(F)(F)F)nn3)ccn2c1-c1ccc(Cl)cc1` (centres unmarked) [Compound 1-27, 3-(4-Chloro-phenyl)-7-[4-(1-hydroxy-1-trifluoromethyl-propyl)-[1,2,3]triazol-1-ylmethyl]-indolizine-2-carboxylic acid ethyl ester], the IC50 is < 300 nM.
Turning to `CCC(O)(c1nnc(NCc2ccn3c(-c4ccc(F)cc4)c(C#N)c(Br)c3c2)o1)C(F)(F)F` (centres unmarked) [Compound 1-18, 1-Bromo-3-(4-fluoro-phenyl)-7-{[5-(1-hydroxy-1-trifluoromethyl-propyl)-[1,3,4]oxadiazol-2-ylamino]-methyl}-indolizine-2-carbonitrile], the 50% inhibitory concentration (IC50) is < 300 nM.
Turning to `CCOC(=O)c1cc2cc(Cn3cc(C(O)(CC)C(F)(F)F)nn3)ccn2c1Cl` (single isomer, unassigned) [Compound 1-87, 3-Chloro-7-[4-(1-hydroxy-1-trifluoromethyl-propyl)-[1,2,3]triazol-1-ylmethyl]-indolizine-2-carboxylic acid ethyl ester], the IC50 was < 300 nM.
As for `CCC(O)(c1cn(Cc2ccn3c(-c4ccc(=O)n(C)c4)c(C#N)cc3c2)nn1)C(F)(F)F` (centres unmarked) [Compound 1-70, 7-[4-(1-Hydroxy-1-trifluoromethyl-propyl)-[1,2,3]triazol-1-ylmethyl]-3-(1-methyl-6-oxo-1,6-dihydro-pyridin-3-yl)-indolizine-2-carbonitrile], the IC50 was > 1000 nM.
As to `CCC(OC(=O)c1ccc([N+](=O)[O-])cc1)(c1cn(Cc2ccn3c(-c4ccc(OC)nc4)c(C(N)=O)cc3c2)nn1)C(F)(F)F` (single isomer, unassigned) [Compound 1-83, 4-Nitro-benzoic acid 1-{1-[2-carbamoyl-3-(6-methoxy-pyridin-3-yl)-indolizin-7-ylmethyl]-1H-[1,2,3]triazol-4-yl}-1-trifluoromethyl-propyl ester], the IC50 lay in the range of 300 to 1000 nM.
`CCOC(=O)c1cc2cc(Cn3cc(C(O)(CC)C(F)(F)F)nn3)ccn2c1-c1ccc(OC)nc1` (centres unmarked) [Compound 1-36, 7-[4-(1-Hydroxy-1-trifluoromethyl-propyl)-[1,2,3]triazol-1-ylmethyl]-3-(6-methoxy-pyridin-3-yl)-indolizine-2-carboxylic acid ethyl ester]: the IC50 is < 300 nM.
For the compound `CCOc1ccc(-c2c(C#N)cc3cc(Cn4cc(C(O)(CC)C(F)(F)F)nn4)ccn23)cn1` (centres unmarked) [Compound 1-59, 3-(6-Ethoxy-pyridin-3-yl)-7-[4-(1-hydroxy-1-trifluoromethyl-propyl)-[1,2,3]triazol-1-ylmethyl]-indolizine-2-carbonitrile], the IC50 is < 300 nM.
